Measured values from patent publication US20030082229A1, “Parenteral chlorambucil for treatment of malignant and autoimmune disease and methods of use” (priority 2001, published 2003).
Entries after “also recorded” stand apart in the source; their conditions may differ. Where two headings read alike, the source gives them in different places.

Tests used:
[1] = system: HL-60 human myeloid leukemia cell line; assay: In vitro clonogenic cytotoxicity assay, HL-60; format: cell-based; details: acetone positive control
Procedure: (§1) The cytotoxic potential of selected solvent systems with and without CLB was determined against the two human myeloid leukemia cell lines (HL-60) (Gallagher R. Collins S, Trujillo et al: Characterization of the continuously differentiating myeloid cell line (HL-60) from a patient with acute promyelocytic leukemia. BLOOD 54:254-68, 1979) and human myeloid leukemia cell line (KBM-7/B5) (Andersson B S, Beran M, Pathak S, et al: Ph-positive chronic leukemia with near-haploid conversion in vivo and establishment of a continuously growing cell line with similar cytogenetic pattern. CANCER GENETICS AND CYTOGENET 24:335-43, 1987; Andersson B S, Collins V P, Kurzrock R, et al: KBM-7; human myeloid leukemia cell line with double Philadelphia chromosomes but lacking normal BCR and c-ABL transcripts. LEUKEMIA, 9:2100-2108, 1995). Briefly, HL-60 or KBM-7/B5 cells were suspended at a density of 5,000 cells per ml in Iscove's modified Dulbecco medium (IMDM) supplemented with 20% fetal bovine serum (FBS) and 0.3% agar as viscous support. […] Clones of>50 cells were counted under an inverted phase contrast microscope, and survival curves were constructed as described (Andersson B S, Mroue M, Britten R A, Murray D: The role of DNA damage in the resistance of human chronic myeloid leukemia cells to cyclophosphamide analogs. CANCER RESEARCH 54:5394-5400, 1994).

[2] = cited from earlier work
[3] = Osmotic pressure measurement (micro-osmometer); format: physicochemical; details: CLB final concentration 1-5 mg/ml
Procedure: It is desirable that a parenteral formulation of a pharmacologically active agent be isosmotic with blood. A hypertonic delivery system can be utilized if the drug formulation is infused through an indwelling (central) venous catheter and gradually diluted in a large blood volume. Osmotic pressures were measured with a micro-osmometer model 3MOplus osmometer (Advanced Instruments Inc., Needham Heights, Mass.). The instrument was calibrated using Advans™ intrinsic calibration standards (Advanced Instruments Inc.) in the range of 500-2000 mOsm/kg. The test solution was placed in a disposable cuvette, and the osmotic pressure readings were recorded. Triplicate measurements were carried out for each vehicle (without CLB), and six measurements were done with drug added. A two-tailed t-test was used to compare the differences in osmotic pressures of various solvent vehicles with and without the addition of CLB (Mann H. B., Whitney D. R.: On a test whether one of two random variables is stochastically larger than the other. ANN. MATH. STATIST. 18: 50-60, 1947).

erythrocytes = assay: Hemolysis studies in vitro; format: cell-based; details: drug concentrations of 100 μg/ml or more
Description: The procedure of Parthasarathy et al. was used to examine the hemolytic potential of a few selected formulations of the present invention, and the LD50 (concentration that results in 50% lethality or destruction of a population) values of the most optimal formulation was constructed as previously described (Parthasarathy R, Sacks P G, Harris D, et al: Interaction of liposome-associated all-trans-retinoic acid with squamous carcinoma cells. CANCER CHEMOTHER. PHARMACOL. 34:527-34, 1994). Briefly, heparinized blood was mixed with an equal volume of Alsever's solution. This mixture was washed twice in phosphate-buffered saline (PBS), and a 10% (volume per volume, v/v) erythrocyte/PBS solution was then prepared and mixed with increasing amounts of the solvent (prototype EtOH/lipid solvent vehicle and NS) with or without addition of CLB. These resulting mixtures were incubated for 4 hours at 37° C. At the end of the incubation, the cells were pelleted at 10,000×g in an Eppendorf micro-centrifuge, and after washing twice in NS, the pellet was resuspended and lysed using distilled water. The release of hemoglobin in the supernatant (i.e., hemolysis) was determined spectrophotometrically at a wavelength of 550 nm. […]
The hemolytic potential of the formulations (EtOH/lipid/CLB/NS) were evaluated as described. […]

[4] = format: physicochemical; details: RT
Description: HPLC assay provides an accurate and sensitive detection system for low concentrations of CLB in solution, both protein-free mixtures and protein-containing fluids (i.e., blood plasma), utilizing absorbency detection in the ultraviolet (UV) spectrum. For the detection a wavelength of 254 nm was chosen on the basis of the inherent absorption maximum of the CLB molecule. The HPLC system was equipped with a Waters 717 plus AutoSampler (Waters, Milford, Mass.). The detector was a Waters Model 486 Tunable Absorbance Detector in sequence with a Waters Millennium™ software package for HPLC (Waters, Milford, Mass.). The column used was a Whatman C-18 EQC […] 125A μBondapak 4.6×216 mm. […] The analytic system was based on previously established extraction and HPLC experience with retinoic acid and with the bifunctional DNA-alkylating drug busulfan (Napoli J L, Pramanik B C, Williams J B et al: Quantification of retinoic acid by gas-liquid chromatography-mass spectrometry: total versus all-trans-retinoic acid in human plasma. J LIPID RES. 26: 387-392, 1985; Chow D S-L, Bhagwatwar H P, Phadungpojna S, Andersson B S: Stability-indicating high-performance liquid chromatographic assay of busulfan in aqueous and plasma samples. J CHROMATOGR B, 704: 277-288, 1997). […]

[5] = format: physicochemical
[6] = IV CLB pharmacology in beagle dogs; format: in vivo
Procedure: The CLB given to beagle dogs was prepared as above. The same general design of the experiment was used, except that the dogs received a maximum dose of 7.5 mg/kg BW through a cephalic vein catheter, and the drug was delivered under general anesthesia.
(§2) Blood samples (0.5-1.0 ml) were drawn in heparinized tubes at selected time points prior to the drug infusion (“blank”), and from 5 min to 6 hours after drug injection for determination of CLB concentrations. The samples were obtained through cardiac puncture under light CO2 anesthesia in the rats and through a prepositioned cephalic vein catheter in the dogs. The blood was centrifuged at 1,000×g for 10 min, and the plasma was removed and stored at−80° C. until extracted and assayed by HPLC.

[7] = system: KBM-7/B5 human myeloid leukemia cell line; assay: In vitro clonogenic cytotoxicity assay, KBM-7/B5; format: cell-based; details: acetone positive control
Procedure: as §1

physchem = format: physicochemical
Procedure: The solubility of CLB was determined in several individual vehicles. Briefly, a known amount of CLB drug, formulated as a powder (Sigma, St Louis, Mo.), was equilibrated in the respective solvent at RT over 1-4 hours. An aliquot was removed, filtered, and diluted in methanol (MeOH) before high-pressure liquid chromatography (HPLC) to determine solubility at predetermined times. Based on the CLB solubility in each vehicle, different solvents were mixed according to the cosolvency principle in an attempt to enhance the stable solubility (Spiegel A. J., Noseworthy M. N.: Use of nonaqueous solvents in parenteral products. J. PHARM. SCI. 52:917-927, 1963; Yalkowsky S. H., Roseman T. J.: Solubilization of drugs by cosolvents. In: Yalkowsky S. H. (Ed.): TECHNIQUES OF SOLUBILIZATION OF DRUGS. pp. 91-134. Marcel Dekker Inc., New York, N.Y. 1981).
An excess of CLB as a powder was added to DMSO, PEG, and PG at RT. Each mixture was placed in a dark environment and checked visually for up to 4 hours for evidence of solubilization. Samples of 1 ml were taken at various time intervals. The CLB concentration was then determined by HPLC after filtration through a 0.45 μm polytetrafluoroethylene (PTFE) membrane filter (Autovial®) fitted to a syringe assembly (Whatman Inc., Springfield Mill, Maidstone, Kent, UK).

[8] = IV CLB pharmacology in rats; format: in vivo, Sprague-Dawley rats
Description: Male Sprague-Dawley rats with a body weight of 250-300 g were used for the in vivo pharmacology experiments (Harlan-Sprague-Dawley, Houston, Tex.). The animals were allowed a minimum of 3-4 days after arrival to accommodate to the new environment and allowed free access to commercial feed and tap water prior to and during the experimentation period. The animals were housed in facilities that meet the requirements of the U.S. Department of Agriculture, (USDA), National Institute of Health (NIH), and Department of Health and Human Services (DHHS).
The CLB dose of 5 mg/kg BW was determined to be the highest dose that could be administered to the rats as an IV bolus injection without requiring anticonvulsant premedication.
The CLB was formulated in EtOH/lipid (prototype EtOH/lipid solvent vehicle) to a stock concentration of 100 mg/ml and then diluted with NS so the dose (5.0 mg/kg) could be injected in a tail vein in a volume of approximately 0.5 ml. The CLB concentrations of the formulation were confirmed by HPLC prior to all administrations. No anticonvulsant premedication for the rats in this experiment was used in order to avoid the possible induction of microsomal liver enzymes that could modify CLB metabolism. The animals were unanesthetized, being only physically restrained during the drug injection for the same reason.
as §2

SMILES: O=C(O)CCCc1ccc(N(CCCl)CCCl)cc1 [CLB, 4-[Bis(2-chloroethyl)amino]benzenebutanoic acid]
- Cytotoxic activity in the formulation vs CLB dissolved in acetone, HL-60 [1]: retained full cytotoxic activity
- Dose at which dose-limiting neurological toxicity is manifested ([2]; oral, intermittent schedule, confusion, generalized seizures): ≥ 100 mg/m^2 BSA
- Terminal half-life in blood ([2]; taken by mouth): approximately 60 minutes
- Change of osmolarity of complete vehicle by addition of CLB [3]: < 5%
- CLB-dependent lysis (erythrocytes): barely exceeded background
- Time CLB stable at 100 mg/ml in EtOH/lipid solvent ([4]; 100 mg/ml, prototype EtOH/lipid vehicle): more than 7 days
- Drug still intact at 7 days ([4]; EtOH/lipid solvent system, HPLC): > 95%
- CLB degradation in DMSO ([5]; DMSO): started degrading within a few hours
- Time CLB stable in DMSO before significant degradation ([5]; DMSO, RT): at most 2 hours
- Time formulation stable after mixing with infusion fluid ([5]; EtOH/lipid diluted with infusion fluid, RT, listed as Chlorambucil): > 24 h
- Stability (percent remaining) of infusion formulation ([5]; RT, over 24 hours, FIG. 1): > 90%
- CLB recovered at 24 hours, diluted to 1 mg/ml ([5]; primary stock diluted with NS to 1 mg/ml): > 95%
- CLB recovered at 24 hours, diluted to 5 mg/ml ([5]; primary stock diluted with NS to 5 mg/ml): > 95%
- CLB plasma concentrations after IV injection, beagles ([6]; 7.5 mg/kg BW IV): detectable, cytotoxic CLB plasma concentrations; also recorded: for several hours remained in the cytotoxic range; also recorded: maintained for several hours
- Tolerability of injection, beagles ([6]; 7.5 mg/kg BW IV): well accepted
- Neurological effect, no premedication ([6]; 7.5 mg/kg BW IV, dogs): generalized seizure; also recorded: caused seizures
- Neurological effect, premedicated with diphenylhydantoin ([6]; 7.5 mg/kg BW IV, two dogs): tolerated the CLB administration without any obvious neurological effects
- half-life ([6]; dog, plasma, IV, this formulation, FIG. 7 beagle 7.5 mg/kg, read-out: Apparent terminal half-life): ~1 h
- Cytotoxic activity in the formulation vs CLB dissolved in acetone, KBM-7/B5 [7]: retained full cytotoxic activity
- solubility (physchem; DMSO, organic solvent or mixture, thermodynamic from solid, DMSO, RT, read-out: CLB solubility (maximum equilibrium concentration) in DMSO): > 100 mg/mL
- solubility at 1 h (physchem; EtOH, organic solvent or mixture, thermodynamic from solid, EtOH, within 1 hour at RT, read-out: CLB solubility (maximum equilibrium concentration) in EtOH): > 100 mg/mL
- CLB solubility in aqueous solvents (physchem; NS, 5% dextrose in water, soybean lipid emulsion (Intralipid)): virtually insoluble
- Solubilized CLB in PEG-400, PG, NS, 20% soybean lipid emulsion, 5% dextrose (physchem; RT): did not yield any significant concentrations of solubilized drug
- solubility (physchem; prototype EtOH/lipid solvent vehicle, aqueous with cosolvent or surfactant or cyclodextrin, thermodynamic from solid, EtOH/emulsified soybean oil vehicle, read-out: CLB solubility in prototype EtOH/lipid solvent vehicle): ≥ 100 mg/mL
- CLB plasma concentrations after IV injection, rats ([8]; 5 mg/kg BW IV): detectable, cytotoxic CLB plasma concentrations; also recorded: for several hours remained in the cytotoxic range; also recorded: maintained for several hours
- Tolerability of injection, rats ([8]; 5.0 mg/kg BW IV): well tolerated; also recorded: well accepted
- Highest dose as IV bolus without requiring anticonvulsant premedication ([8]; rats, IV bolus): 5 mg/kg BW
